The values below come from ChEMBL document CHEMBL1157480, “Petrosamine, a potent anticholinesterase pyridoacridine alkaloid from a Thai marine sponge Petrosia n. sp” (Bioorg Med Chem, 2008).

This test deals with Acetylcholinesterase (Torpedo californica, UniProt P04058). Description: Inhibition of Torpedo californica AchE activity by Ellman's assay. On the set-up: species or system Tetronarce californica. On the technique in general: DTNB colorimetry detects thiols as they appear.

One may read the IC50 as the midpoint of a concentration-inhibition curve. A low value points to greater potency in that assay.

Chain of Acetylcholinesterase (P04058 whole entry): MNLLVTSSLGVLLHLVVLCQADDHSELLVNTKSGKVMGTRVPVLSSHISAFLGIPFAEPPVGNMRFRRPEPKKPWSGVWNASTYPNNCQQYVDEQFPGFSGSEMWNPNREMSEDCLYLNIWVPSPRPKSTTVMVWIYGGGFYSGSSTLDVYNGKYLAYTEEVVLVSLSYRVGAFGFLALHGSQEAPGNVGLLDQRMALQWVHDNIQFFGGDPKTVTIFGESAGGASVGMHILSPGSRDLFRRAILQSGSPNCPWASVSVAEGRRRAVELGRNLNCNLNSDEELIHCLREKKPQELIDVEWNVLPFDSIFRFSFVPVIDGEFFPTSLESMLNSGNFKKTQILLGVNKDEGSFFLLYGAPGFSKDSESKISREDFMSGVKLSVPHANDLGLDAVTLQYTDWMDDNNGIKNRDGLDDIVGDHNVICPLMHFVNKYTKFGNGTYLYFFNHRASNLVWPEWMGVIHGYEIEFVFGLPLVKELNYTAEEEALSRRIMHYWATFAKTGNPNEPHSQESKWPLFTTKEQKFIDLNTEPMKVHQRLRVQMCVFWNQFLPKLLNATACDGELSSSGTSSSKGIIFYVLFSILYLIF

The molecule `Cn1cc2c(cc1=O)-c1nc3cc(Br)ccc3c3ccnc(c13)C2=O` had an IC50 above 300000 nM.
With `Cn1ccc2c3nc4cc(Br)ccc4c4c3c(c(=O)c-2c1)[N+](C)(C)CC4=O` [PETROSAMINE], it took 91 nM to reach half-maximal inhibition (IC50).
